Laboratory results published in US12239125B2, “Compositions for organ preservation” (SigmaDrugs Kutató Korlátolt Felelösségü Társaság, priority 2016, dated 2025).
pIC50: −log10 of the molar value. Counter-ions that a name gives are not always drawn.

How the values were obtained:
isolated kidney = experiment: Rat model of kidney cold ischemia (cold perfusion and storage of isolated kidney); settings: for reducing, delaying or preventing functional and/or structural damage of a stored organ or tissue (comparison of the three agonists): fluvoxamine, SA-4503 and PRE-84 compared; for mRNA levels of Bcl-2 / mRNA levels of BAX: stored kidneys; for mRNA levels of BAX: difference not statistically significant
Protocol: Male Wistar rats were anesthetized with isoflurane (3% vol/vol) mixed with synthetic air (1 L/min) before surgery and placed on a temperature-controlled table to maintain core body temperature. Kidneys (n=6/group) were washed through the renal arteries with 5 ml cold solution, then removed from the animal and placed into a container filled with the same solution for either 2 or 3 hours. […] 3h CP); (viii) Custodiol containing 0.003 mg/mL FLU, 3 hours of cold perfusion (Cust. […] After cold ischemia kidneys were immediately snap-frozen in liquid nitrogen and stored at −80° C. or fixed in buffered 8% formalin for further processing.
Kidneys were fixed in 8% formalin, embedded into paraffin and 5 μm sections were stained with periodic acid-Schiff (PAS) to assess tubular injury. Images were taken with Panoramic Viewer (3[…] Ltd., Budapest, Hungary). Tubular luminal areas were measured in three fields of magnification ×200 per rat. The analysis was performed in a double-blinded fashion with computer-assisted morphometry using Adobe Photoshop CS6 (Adobe Systems Corporation, San José, Calif., USA) and Image J (National Institute of Health, Bethesda, MD, USA) softwares on a Zeiss Axiolmager A1 light-microscope (Carl Zeiss A G, Jena, Germany).
Total RNA was isolated from kidneys with GeneAid Total RNA Mini Kit (Geneaid Biotech Ltd., New Taipei City, Taiwan). 500 ng RNA was reverse-transcribed using Maxima First Strand cDNA Synthesis Kit for RT-qPCR (Thermo Scientific, Waltham, MA, USA) to generate first-strand cDNA. mRNA expressions of Ngal (Lcn2), Kim1, Mcp1, IL-1α (Il1α), IL-6 (Il6), IL-10 (Il10), TNF-α (Tnf), HO-1 (Hmox1), Bax, Bcl-2 (Bcl2), 18S ribosomal RNA (Rn18s) and β-actin (Actb) were determined with real-time RT-PCR using Light Cycler 480 SYBR Green 1 Master enzyme mix on a Light Cycler system (Roche Diagnostics, Mannheim, Germany). The reaction mix contained 10 pmol/μl of each PCR primer (Table 1; Integrated DNA Technologies Inc., Coralville, IA, USA), 10 μl of Light Cycler 480 SYBR Green 1 Master enzyme mix and 1 μl of cDNA sample. The conditions of the PCRs were as follows: 1 cycle at 95° C. for 5 minutes, followed by 70 cycles under the appropriate PCR conditions. Quantification was performed with the second-derivative method by monitoring the cycle number at which the fluorescent sign could be distinguished from the background. Results were analyzed with Light Cycler 480 software version 1.5.0.39 (Roche Diagnostics, Mannheim, Germany). The mRNA expression of each gene was determined by comparison to 18S ribosomal RNA as housekeeping gene from the same sample.
All reagents for Western blotting were purchased from Bio-Rad Laboratories, Hercules, CA, USA unless stated otherwise. Tissue samples were lysed in buffer containing leupeptin, aprotinin, Triton X-100, Tris-HCl, Ethylene glycol-bis (2-aminoethylether),N,N,N′,N′-tetraacetic-acid, NaF, Phenylmethylsulphonylfluoride and Na-orthovanadate (each substance were purchased from Sigma-Aldrich Co., St. Louis, MO, USA). Protein concentrations were determined using Bradford assay. […] Pre-stained protein mixture was used as marker of molecular mass. The separated proteins were transferred into nitrocellulose membranes. Non-specific binding sites were blocked in 5% non-fat dry milk containing blot solution. Membranes were incubated with monoclonal antibody specific to rat cleaved caspase-3 (Asp175) (Cell Signaling Technology, Danvers, MA, USA) diluted to 1:1000. Blots were washed and incubated (1 hour, room temperature) with peroxidase-conjugated goat anti-rabbit IgG secondary antibody (Cell Signaling Technology, Danvers, MA, USA) diluted to 1:4000. […] Bands were analyzed with Quantity One software version 4.6.9. Protein abundance was represented as Integrated Optical Density (IOD)/Ponceau S compared to controls.
Data were analyzed using GraphPad Prism software (GraphPad Software Inc., La Jolla, CA, USA).

autotransplanted kidney = experiment: Rat model of kidney isograft autotransplantation (ATx) after cold storage in preservation solution; format: in vivo; settings: for Kidney function / serum AST levels / serum creatinine levels: vs preservation solution without S1R agonist; for NGAL levels: compared to Custodiol; for Tubular lumen areas (tubular dilatation): vs standard preservation solution, PAS-stained sections
Protocol: The institutional committee on animal welfare approved all experiments. Experiments were performed on Male Wistar rats weighing 205±15 g (Toxi-Coop Toxicological Research Center, Dunakeszi, Hungary). Animals were housed in a temperature-controlled (22±1° C.) room with alternating light and dark cycles and had free access to standard rat chow and water. Male Wistar rats (n=8/group) were anesthetized with isoflurane (3% vol/vol) mixed with synthetic air (1 L/min) before surgery and placed on a temperature-controlled table to maintain core body temperature. Left kidneys were perfused with cold Custodiol perfusion solution (Na^+: 15 mmol/L; K^+: 9 mmol/L; Mg^2+: 4 mmol/L; Ca^2+: 0.015 mmol/L; histidine: 198 mmol/L; tryptophan: 2 mmol/L; ketoglutarate: 1 mmol/L; mannitol: 30 mmol/L) (Franz Kohler Chemie GMBH, Bensheim, Germany), then removed from the animal: kidneys were placed into a container for 2 hours filled with either (i) cold Custodiol perfusion solution (ATx) or (ii) cold Custodiol perfusion solution containing 0.003 mg/mL FLU (ATx FLU) or (iii) cold Custodiol perfusion solution containing 0.003 mg/mL SA4503 (ATx SA). After 2 hours kidneys were placed back into the rats and end-to-end anastomoses of the renal artery, vein and ureter were performed. […] Total warm ischemia time was 35 min in all animals. Sham operated animals served as controls. After 24 hours of reperfusion, blood samples were collected from the abdominal aorta, the remnant kidneys were harvested, instantly snap-frozen in liquid nitrogen, and stored at -80° C. or fixed in buffered 8% formalin for further processing. The experimental design of the autotransplantation is shown in FIG. 9 Metabolic (glucose, fructosamine, total and HDL-cholesterol, triglycerides) and renal functional parameters from rat sera (sodium, potassium, creatinine, blood urea nitrogen (BUN), aspartate transaminase (AST)) were determined with commercially available kits on a Hitachi 912 photometric chemistry analyzer. Kidneys were fixed in 8% formalin, embedded into paraffin and 5 μm sections were stained with periodic acid-Schiff (PAS) to assess tubular injury. Images were taken with Panoramic Viewer (3[…] Ltd., Budapest, Hungary). Tubular luminal areas were measured in three fields of magnification ×200 per rat. The analysis was performed in a double-blinded fashion with computer-assisted morphometry using Adobe Photoshop CS6 (Adobe Systems Corporation, San José, Calif., USA) and Image J (National Institute of Health, Bethesda, MD, USA) softwares on a Zeiss Axiolmager A1 light-microscope (Carl Zeiss A G, Jena, Germany). Formalin-fixed kidney samples were embedded into paraffin. 5 μm thick sections were mounted on Superfrost slides (Thermo Shandon, Runcorn, UK) and were manually deparaffinized. Assay was performed using the Apoptag® Peroxidase In situ Apoptosis Detection Kit (Millipore, Billerica, MA, USA). Briefly, samples were pretreated with Proteinase K for 15 min. Following repeated washing steps endogenous peroxidase activity was blocked by 3% H2O2 in methanol for 5 min at room temperature. Next, slides were incubated in reaction buffer containing 30% TdT enzyme for 1 hour at room temperature after which Stop buffer was added. Slides were incubated with anti-Dioxigenin Conjugate for 30 min at room temperature. Slides were developed using DAB peroxidase substrate. The areas of TUNEL-positive apoptotic nuclei were measured in three fields of magnification ×200 per rat. The analysis was performed using Adobe Photoshop CS6 (Adobe Systems Corporation, San José, Calif., USA) and Image J (National Institute of Health, Bethesda, MD, USA) softwares on a Zeiss Axiolmager A1 light-microscope (Carl Zeiss A G, Jena, Germany). Formalin-fixed kidney samples were embedded into paraffin. One to two micron thick sections were mounted on Superfrost slides (Thermo Shandon, Runcorn, UK) and were manually deparaffinized. Endogenous peroxidase activity was blocked by 3% H2O2 in methanol for 20 min at room temperature. […]

[1] = test system: mitochondrial functions (liver); settings: administered to rats or used in the preservation liquid of isolated liver; cited from earlier work
PCP receptors = settings: cited from earlier work
[2] = isolated kidneys stored in Custodiol, vs vehicle
[3] = 2 h cold storage in Custodiol with 0.003 mg/mL compound, ATx, 24 hours of reperfusion
[4] = stored and subsequently transplanted kidney
[5] = transplantation after storage, vs vehicle

CCCN(CCC)CCc1ccc(OC)c(OCCc2ccccc2)c1 [NE100, N-dipropyl-2-[4-methoxy-3-(2-phenylethoxy)-phenyl]-ethylamine monohydrochloride]
KIM-1 levels: effect of adding S1R antagonist to fluvoxamine (isolated kidney): diminished the protective effect of fluvoxamine

COCCCC/C(=N\OCCN)c1ccc(C(F)(F)F)cc1 [fluvoxamine, fluvoxamine maleate]
structural damage after prolonged cold ischemia (isolated kidney; 3, 8 or 24 hours of cold ischemia with Flu vs 2 hours ischemia without Flu): less pronounced
increase of tubular damage (tubular lumen areas) from 2 to 3 hours of cold storage (isolated kidney; Custodiol, 2 and 3 hours of cold storage): inhibited this increase of damage
less tissue damage by histologic assay (isolated kidney; after 1.5 fold longer or even 10 fold longer preservation time than organs in same solution without fluvoxamine): 25%
MCP-1 levels (isolated kidney; after storage, vs conventional Custodiol): less elevated
Tubular lumen dilatation (isolated kidney; cold storage without reperfusion, compound 0.003 mg/mL in preservation solution vs solution alone): less dilated
reducing, delaying or preventing functional and/or structural damage of a stored organ or tissue (comparison of the three agonists) (isolated kidney): surprisingly more effective than SA 4503
reducing, delaying or preventing functional and/or structural damage of a stored organ or tissue (comparison of the three agonists) (isolated kidney; listed as Fluvoxamine): most successful of the three compounds
KIM-1 levels (isolated kidney; [2]): decreased dramatically
kidney structure on PAS-stained sections (isolated kidney; perfused with FLU, harvested after 2 hours of cold ischemia): better preserved
KIM-1 levels (isolated kidney; saline): milder, though a tendency of decrease is noticed
NGAL mRNA expression (isolated kidney; saline): Efficacy of fluvoxamine in saline was also demonstrated
mRNA levels of Bcl-2 (isolated kidney): markedly increased
mRNA levels of BAX (isolated kidney): decreased
Kidney function (autotransplanted kidney; [3]): substantially improved
serum AST levels (autotransplanted kidney; [3]): lower
serum creatinine levels (autotransplanted kidney; [3]): lower
Levels of MCP-1 (autotransplanted kidney; autotransplanted kidneys, vs vehicle): significantly less elevated
mRNA levels of inflammatory cytokines (IL10, IL-1α, TNFα) (autotransplanted kidney; [4]): decreased
protein levels of inflammatory cytokines (IL10, IL-1α, TNFα) (autotransplanted kidney; [4]): decreased
NGAL levels (autotransplanted kidney; transplantation after storage): significantly decreased
histological damage on PAS-stained kidney sections (autotransplanted kidney; transplantation after storage, vs conventional preservation fluid (vehicle)): milder histological damage
Tubular lumen areas (tubular dilatation) (autotransplanted kidney; transplantation after storage): significantly smaller
Tubular lumen areas (tubular dilatation) (autotransplanted kidney; transplantation after storage, listed as FLU): less dilated
BAX expression (mRNA) (autotransplanted kidney; [5]): significant decrease
KIM-1 expression levels (autotransplanted kidney; [5]): significantly lower expression
increase of HO-1 expression (autotransplanted kidney; [5]): prevented
mRNA levels of Bcl-2 (autotransplanted kidney; [5]): significant increase
apoptotic cells in TUNEL assay (autotransplanted kidney; transplantation after storage, vs vehicle treated kidneys): significantly less apoptotic cells

COc1ccc(CN2CCN(Cc3ccccc3)CC2)c(O)c1OC [BHDP, N-benzyl-N′-(2-hydroxy-3,4-dimethoxybenzyl)-piperazine]
mitochondrial functions [1]: protected mitochondrial functions

COc1ccc(CCN2CCN(CCCc3ccccc3)CC2)cc1OC [SA 4503, 1-[2-(3,4-Dimethoxyphenyl)ethyl]-4-(3-phenylpropyl)piperazine]
KIM-1 levels (isolated kidney; [2]): inhibited the increase of KIM-1
mRNA levels of Bcl-2 (isolated kidney): no such effect
mRNA levels of BAX (isolated kidney): decreased
BUN (Blood urea nitrogen) levels (autotransplanted kidney; [3]): significantly decreased
Kidney function (autotransplanted kidney; [3]): substantially improved
serum AST levels (autotransplanted kidney; [3]): lower
serum creatinine levels (autotransplanted kidney; [3]): lower
NGAL levels (autotransplanted kidney; transplantation after storage): significantly decreased
Tubular lumen areas (tubular dilatation) (autotransplanted kidney; transplantation after storage): significantly smaller
KIM-1 expression levels (autotransplanted kidney; [5]): significantly lower expression

O=C(OCCN1CCOCC1)C1(c2ccccc2)CCCCC1 [PRE-084, 2-morpholin-4-dylethyl 1-phenylcyclohexane-1-carboxylate]
KIM-1 levels (isolated kidney; [2]): inhibited the increase of KIM-1
mRNA levels of BAX (isolated kidney): decreased
pIC50 (PCP receptors): < 4.00
